Source: patent US9611278B2 (Merck Sharp & Dohme Corp., priority 2013, dated 2017)

Experiments:
[1] = test system: Spontaneously hypertensive rats (SHR); experiment: Acute Efficacy in Spontaneously Hypertensive Rats (SHR); format: in vivo, rat; details: single oral dose, P.O. 1 mpk
From the text: Spontaneously hypertensive rats (SHR, male, Charles River) were implanted with DSI TA11PA-C40 telemetry device (Data Sciences, Inc., St. Paul, Minn.) under isoflurane or ketamine/metomidine anesthesia. The telemetry unit catheter was inserted into the descending aorta via the femoral artery and the telemetry device was implanted subcutaneously in the left flank area. Animals were allowed to recover from surgery for 14 days before the start of any studies. Blood pressure, heart rate, and activity signals from conscious, freely moving rats were recorded continuously for 30 seconds every 10 min. On the day prior to administration of compound, a single oral dose of vehicle (10% transcutol/20% Cremophor/70% water) was administered to all animals to establish baseline control data. The blood pressure lowering efficacy of compound (PO) or vehicle was evaluated following a single oral gavage. Data were collected as hourly averages, and changes in blood pressure were calculated by subtracting control baseline data on an hourly basis. Animals were maintained on normal diet with a 12 hour light-dark cycle.
Maximum peak decreases of systolic blood pressure (SBP) in SHR at a particular P.O. dose (mpk milligrams per kilogram) for the following representative compounds are provided in Table 9. Category A=SBP in SHRs <15 mmHg; Category B=SBP in SHRs 15-25 mmHg; Category C=SBP in SHRs >25 mmHg

[2] = molecular target: T1, sGC α1/β1 heterodimer stably expressed in CHO-K1 cells (CHO-K1/sGC) (Homo sapiens, UniProt Q02108+Q02153); experiment: Cell-based sGC Functional Assay (CASA Assay); details: for Emax: CHO-K1, activation as percentage of maximum cGMP production of Compound A (set to 100%), read-out: % Act.; for EC50: inflection point of cGMP generation in CHO-K1/sGC cells, 4P fit, 1 hr at 37° C., read-out: IP
T1 construct: expressed in transfected cells
T1 sequence (Q02108 1-690): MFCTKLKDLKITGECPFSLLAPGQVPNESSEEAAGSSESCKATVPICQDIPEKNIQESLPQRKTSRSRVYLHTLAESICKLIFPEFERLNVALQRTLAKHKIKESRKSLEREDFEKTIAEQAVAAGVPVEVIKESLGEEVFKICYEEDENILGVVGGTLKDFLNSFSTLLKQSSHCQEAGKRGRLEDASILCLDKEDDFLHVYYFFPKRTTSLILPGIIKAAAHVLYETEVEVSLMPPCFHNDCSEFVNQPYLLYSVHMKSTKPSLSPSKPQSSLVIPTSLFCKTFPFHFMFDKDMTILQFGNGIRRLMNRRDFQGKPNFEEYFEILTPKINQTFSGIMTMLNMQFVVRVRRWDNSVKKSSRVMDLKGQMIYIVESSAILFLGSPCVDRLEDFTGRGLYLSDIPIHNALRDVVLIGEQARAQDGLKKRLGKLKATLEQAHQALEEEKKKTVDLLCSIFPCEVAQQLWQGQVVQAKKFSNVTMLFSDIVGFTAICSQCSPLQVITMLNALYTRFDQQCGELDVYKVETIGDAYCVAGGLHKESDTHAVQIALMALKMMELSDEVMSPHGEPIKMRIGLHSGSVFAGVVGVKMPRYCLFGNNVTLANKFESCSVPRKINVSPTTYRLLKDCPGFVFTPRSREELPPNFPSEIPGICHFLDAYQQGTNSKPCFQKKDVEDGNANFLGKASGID
T1 sequence (Q02153 1-619): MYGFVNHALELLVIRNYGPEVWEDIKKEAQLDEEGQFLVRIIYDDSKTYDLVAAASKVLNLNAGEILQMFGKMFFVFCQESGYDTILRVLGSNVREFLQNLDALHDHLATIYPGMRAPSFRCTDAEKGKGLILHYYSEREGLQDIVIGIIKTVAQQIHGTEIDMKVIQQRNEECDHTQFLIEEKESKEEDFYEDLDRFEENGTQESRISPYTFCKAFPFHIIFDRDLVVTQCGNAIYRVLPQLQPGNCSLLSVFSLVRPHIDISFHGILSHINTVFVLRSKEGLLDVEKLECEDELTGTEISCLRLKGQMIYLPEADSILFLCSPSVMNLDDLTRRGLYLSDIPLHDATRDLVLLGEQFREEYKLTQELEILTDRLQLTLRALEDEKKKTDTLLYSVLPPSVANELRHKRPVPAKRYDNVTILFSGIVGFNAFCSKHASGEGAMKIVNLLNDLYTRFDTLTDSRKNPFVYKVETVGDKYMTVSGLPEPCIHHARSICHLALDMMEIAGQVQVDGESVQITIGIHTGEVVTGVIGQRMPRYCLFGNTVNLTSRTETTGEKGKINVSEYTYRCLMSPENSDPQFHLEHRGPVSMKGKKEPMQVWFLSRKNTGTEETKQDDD
Method in brief: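 CHO-K1 cells stably expressing human sGC α1/β1 were incubated with compound for 1 h at 37 °C in buffer with 0.5 mM IBMX and 2.5% DMSO, with or without 1 μM DETA-NO. Intracellular cGMP was read by HTRF and expressed as percentage of maximal activation by reference activator Compound A. Values came from a 4-parameter fit.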

Structure (SMILES)	Emax [2]	EC50 [2]	Category: maximum peak decrease of systolic blood pressure (SBP) in SHR [1]
[2H]C([2H])([2H])n1ncc2c(-c3nc(N)c4c(n3)NC(=O)C4(c3nnc(C)o3)C3CC3)nc(CCC(F)(F)C(F)(F)F)nc21 (centres unmarked) [Example 40, 4-Amino-5-cyclopropyl-5-(5-methyl-1,3,4-oxadiazol-2-yl)-2-(1-(methyl-d3)-6-(3,3,4,4,4-pentafluorobutyl)-1H-pyrazolo[3,4-d]pyrimidin-4-yl)-5,7-dihydro-6H-pyrrolo[2,3-d]pyrimidin-6-one]	–	–	C (Category C=SBP in SHRs >25 mmHg)
CCC1(c2nnc(C3CC3)o2)C(=O)Nc2nc(-c3nc(CCC(F)(F)C(F)(F)F)nc4c3cnn4C)nc(N)c21 (centres unmarked) [Example 53, 4-Amino-5-(5-cyclopropyl-1,3,4-oxadiazol-2-yl)-5-ethyl-2-(1-methyl-6-(3,3,4,4,4-pentafluorobutyl)-1H-pyrazolo[3,4-d]pyrimidin-4-yl)-5,7-dihydro-6H-pyrrolo[2,3-d]pyrimidin-6-one]	165%	0.28 µM	–
Cn1ncc2c(-c3nc(N)c4c(n3)NC(=O)C4(C)c3cn(C4CC4)nn3)nc(CCC(F)(F)C(F)(F)F)nc21 (centres unmarked) [Example 59, 4-Amino-5-(1-cyclopropyl-1H-1,2,3-triazol-4-yl)-5-methyl-2-(1-methyl-6-(3,3,4,4,4-pentafluorobutyl)-1H-pyrazolo[3,4-d]pyrimidin-4-yl)-5,7-dihydro-6H-pyrrolo[2,3-d]pyrimidin-6-one]	117%	0.029 µM	–
CC(C)n1ncc(C2(C)C(=O)Nc3nc(-c4nc(CCC(F)(F)C(F)(F)F)nc5c4cnn5C)nc(N)c32)n1 (centres unmarked) [Example 61, 4-Amino-5-(2-isopropyl-2H-1,2,3-triazol-4-yl)-5-methyl-2-(1-methyl-6-(3,3,4,4,4-pentafluorobutyl)-1H-pyrazolo[3,4-d]pyrimidin-4-yl)-5,7-dihydro-6H-pyrrolo[2,3-d]pyrimidin-6-one]	110%	0.269 µM	–
[2H]C([2H])([2H])n1ncc2c(-c3nc(N)c4c(n3)NC(=O)C4(C)c3cn(CC)nn3)nc(CCC(F)(F)C(F)(F)F)nc21 (centres unmarked) [Example 64, 4-Amino-5-(1-ethyl-1H-1,2,3-triazol-4-yl)-5-methyl-2-(1-(methyl-d3)-6-(3,3,4,4,4-pentafluorobutyl)-1H-pyrazolo[3,4-d]pyrimidin-4-yl)-5,7-dihydro-6H-pyrrolo[2,3-d]pyrimidin-6-one]	120%	0.114 µM	–
Cn1ncc2c(-c3nc(N)c4c(n3)NC(=O)C4(C)c3cn(CC4CC4)nn3)nc(CCC(F)(F)C(F)(F)F)nc21 (centres unmarked) [Example 65, 4-Amino-5-(1-(cyclopropylmethyl)-1H-1,2,3-triazol-4-yl)-5-methyl-2-(1-methyl-6-(3,3,4,4,4-pentafluorobutyl)-1H-pyrazolo[3,4-d]pyrimidin-4-yl)-5,7-dihydro-6H-pyrrolo[2,3-d]pyrimidin-6-one]	111%	0.169 µM	–
CC(C)Cn1cc(C2(C)C(=O)Nc3nc(-c4nc(CCC(F)(F)C(F)(F)F)nc5c4cnn5C)nc(N)c32)nn1 (centres unmarked) [Example 70, 34-Amino-5-(1-isobutyl-1H-1,2,3-triazol-4-yl)-5-methyl-2-(1-methyl-6-(3,3,4,4,4-pentafluorobutyl)-1H-pyrazolo[3,4-d]pyrimidin-4-yl)-5,7-dihydro-6H-pyrrolo[2,3-d]pyrimidin-6-one]	132%	0.294 µM	–
CCn1ncc(C2(C)C(=O)Nc3nc(-c4nc(CCC(F)(F)C(F)(F)F)nc5c4cnn5C)nc(N)c32)n1 (centres unmarked) [Example 79, 4-Amino-5-(2-ethyl-2H-1,2,3-triazol-4-yl)-5-methyl-2-(1-methyl-6-(3,3,4,4,4-pentafluorobutyl)-1H-pyrazolo[3,4-d]pyrimidin-4-yl)-5,7-dihydro-6H-pyrrolo[2,3-d]pyrimidin-6-one]	169%	0.491 µM	–

Continued, in another order:

Emax [2]	EC50 [2]	Structure (SMILES)	Category: maximum peak decrease of systolic blood pressure (SBP) in SHR [1]
90%	0.408 µM	Cn1ncc(C2(C)C(=O)Nc3nc(-c4nc(CCC(F)(F)C(F)(F)F)nc5c4cnn5C)nc(N)c32)n1 (centres unmarked) [Example 80, 4-Amino-5-methyl-5-(2-methyl-2H-1,2,3-triazol-4-yl)-2-(1-methyl-6-(3,3,4,4,4-pentafluorobutyl)-1H-pyrazolo[3,4-d]pyrimidin-4-yl)-5,7-dihydro-6H-pyrrolo[2,3-d]pyrimidin-6-one]	–
102%	0.62 µM	CC(C)n1cc(C2(C)C(=O)Nc3nc(-c4nc(CCC(F)(F)C(F)(F)F)nc5c4cnn5C)ncc32)nn1 (centres unmarked) [Example 81]	–
78%	0.509 µM	[2H]C([2H])([2H])n1ncc2c(-c3nc(N)c4c(n3)NC(=O)C4(c3nc(CC(C)(C)C(=O)OCC)cs3)C3CC3)nc(CCC(F)(F)C(F)(F)F)nc21 (centres unmarked) [Example 82, Ethyl 3-(2-(4-amino-5-cyclopropyl-2-(1-(methyl-d3)-6-(3,3,4,4,4-pentafluorobutyl)-1H-pyrazolo[3,4-d]pyrimidin-4-yl)-6-oxo-6,7-dihydro-5H-pyrrolo[2,3-d]pyrimidin-5-yl)thiazol-4-yl)-2,2-dimethylpropanoate]	–
80%	0.797 µM	[2H]C([2H])([2H])n1ncc2c(-c3nc(N)c4c(n3)NC(=O)C4(c3nc(CC(C)(C)C(=O)O)cs3)C3CC3)nc(CCC(F)(F)C(F)(F)F)nc21 (centres unmarked) [Example 83, 3-(2-(4-Amino-5-cyclopropyl-2-(1-(methyl-d3)-6-(3,3,4,4,4-pentafluorobutyl)-1H-pyrazolo[3,4-d]pyrimidin-4-yl)-6-oxo-6,7-dihydro-5H-pyrrolo[2,3-d]pyrimidin-5-yl)thiazol-4-yl)-2,2-dimethylpropanoic acid]	–
108%	0.112 µM	Cn1ccc2c(-c3nc(N)c4c(n3)NC(=O)C4(C)c3ccc(F)cn3)nc(CCC(F)(F)C(F)(F)F)nc21 (centres unmarked) [Example 85, 4-Amino-5-(5-fluoropyridin-2-yl)-5,7′-dimethyl-2′-(3,3,4,4,4-pentafluorobutyl)-5,7-dihydro-6H,7′H-[2,4′-bipyrrolo[2,3-d]pyrimidin]-6-one]	–
86%	0.378 µM	Cc1nnc(C2(C)C(=O)Nc3nc(-c4nc(CCC(F)(F)C(F)(F)F)nc5c4ccn5C)nc(N)c32)o1 (centres unmarked) [Example 87, 4-Amino-5,7′-dimethyl-5-(5-methyl-1,3,4-oxadiazol-2-yl)-2′-(3,3,4,4,4-pentafluorobutyl)-5,7-dihydro-6H,7′H-[2,4′-bipyrrolo[2,3-d]pyrimidin]-6-one]	–
109%	0.715 µM	Cn1ccc2c(-c3nc(N)c4c(n3)NC(=O)C4(c3nnc(C4CC4)o3)C3CC3)nc(CCC(F)(F)C(F)(F)F)nc21 (centres unmarked) [Example 88, 4-Amino-5-cyclopropyl-5-(5-cyclopropyl-1,3,4-oxadiazol-2-yl)-7′-methyl-2′-(3,3,4,4,4-pentafluorobutyl)-5,7-dihydro-6H,7′H-[2,4′-bipyrrolo[2,3-d]pyrimidin]-6-one]	–
